One data set has as its system A. niger. The data set can be described thus: Franz cell nail bioassay for anti-fungal gas penetration across a human nail. Type of data set: cell-based, Aspergillus niger. The following applies: 4 applications every 2 h 10 min, read after 24 hours; agar 8 mm below nail. As to the method:
After the agar had cooled and set, 25 μl of an A. niger spore suspension was pipetted onto the surface of the agar and a section of human nail fitted in an air-tight manner above the outlet hole, and clamped in place. The cells were then incubated at 32° C. for 24 h to obtain a carpet of mycelium.
The top of the funnel for all of the Franz cells was then covered with Parafilm. The cells were left at room temperature. After a period of 2 h 10 min, the solutions in each Franz cell were removed and replaced with an equivalent solution and the process repeated every 2 h and 10 min for a further […] applications, giving a total of 4 applications. After the final application of solution, the cells were left covered at room temperature, to allow slow growth of the organism for 24 h.

In a further data set the test system is onychomycosis. The following applies: cited from earlier work; for Safety concerns: in vivo, po.

As for `O=C(O)CC(O)(CC(=O)O)C(=O)O` [citric acid], in the data set on A. niger, the “Growth of A. niger mycelium under human nail” value is given as “full carpet of growth of mycelium”.

In the case of `CCC(C)n1ncn(-c2ccc(N3CCN(c4ccc(OCC5COC(Cn6cncn6)(c6ccc(Cl)cc6Cl)O5)cc4)CC3)cc2)c1=O` (centres unmarked) [itraconazole], in the data set on onychomycosis, the Safety concerns result is “liver toxicity, severe skin reactions and drug interactions”.

In the case of `O=NO` [sodium nitrite], in the data set with A. niger, the “Growth of A. niger mycelium under human nail” value is listed as “full carpet of growth of mycelium”.

With `CN(C/C=C/C#CC(C)(C)C)Cc1cccc2ccccc12` [terbinafine], the Safety concerns result in the data set with onychomycosis is “liver toxicity, severe skin reactions and drug interactions”. Moreover, in the data set with onychomycosis (oral treatment), the Cure rates is on record as approximately 70%.
